Refractive index data for five molecules are collected here from the NIST ThermoML archive (doi:10.1016/j.jct.2006.12.004).

± gives the expanded uncertainty stated by the source.

Usually refractive index stands for the speed of light in vacuum divided by its phase velocity in the sample.

This data set in a line: refractive index (Na D-line) (dimensionless). To be noted: 293.1 K; 101.33 kPa; Liquid; Standard Abbe refractometry.
`Cc1cccc(C)c1` [1,3-dimethylbenzene]: the refractive index came to 1.4943 ± 0.0007.

Take `O=CN1CCOCC1` [N-formylmorpholine]: the refractive index is on record as 1.484 ± 0.0007. Regarding `c1ccccc1` [benzene], the refractive index amounted to 1.5024 ± 0.0007. `CCCCCCC` [heptane]: the refractive index stood at 1.3882 ± 0.0007. On to `Cc1ccccc1` [toluene], for which the refractive index is reported as 1.4873 ± 0.0007.
